In patent US20100004277A1, “COMPOUNDS AND METHODS FOR MODULATING PROTEIN TRAFFICKING” (FoldRx Pharmaceuticals, Inc., priority 2006, published 2010):

Assays:
[1] = system: alpha-synuclein toxicity; assay: alpha-synuclein screen (rescue of cells from alpha-synuclein toxicity); format: cell-based
[2] = system: ypt1^ts cells; assay: ypt1^ts mutant growth rescue assay (OD600); format: cell-based, yeast
Description: The yeast mutant cell line ypt1^ts suppresses, in a temperature dependent fashion, the dominant-lethal phenotype of a mutant YPT1 allele (Schmitt et al. (1988) Cell 53:635-47). The yeast mutant cell line ypt1^ts contains an allele of YPT1 that has two point mutations: one that changes an asparagine at position 121 to a isoleucine (N121I) and another that changes an alanine at position 161 to a valine (A161V). The N121I mutation causes dominant lethality by itself, but lethality is suppressed by the second mutation, resulting in a recessive loss of function phenotype at the restrictive temperatures. ypt1^ts cells grow normally at temperatures up to 25° C., but are growth arrested at 37° C. (Id.).
Compounds that rescue cells from alpha-synuclein toxicity were screened to assess their ability to restore growth of ypt1^ts cells. The effect of the compounds was measured on ypt1^ts cells cultured at room temperature (permissive temperature), 37° C. (non-permissive temperature), and 35° C. (semi-permissive temperature).
To determine if the test compounds could rescue the ypt1^ts mutant phenotype, ypt1^ts cells were grown overnight in synthetic complete (SC) media supplementd with 2% glucose at room temperature. Log phase cells were diluted into SC 2% glucose media to an OD600 of 0.003. 100 μL of this culture was then aliquoted into each well of 96-well flat bottom microtiter plates. 1 μL of the test compounds dissolved in DMSO (at a concentration range from 5 mM-0.005 mM) or of DMSO alone was added to each well (50 uM-0.05 uM final concentration in 1% DMSO). Plates were mixed by vortexing and incubated at 35° C. and 37° C. Compound rescue of the ypt1^ts temperature sensitive defect was assessed by measuring the OD600 (optical density at 600 nm; cell growth) of the cultures. Plates incubated at 35° C. were measured at 24 and 40 hours incubation time while plates grown at 37° C. were measured after 40 hours of incubation.
Assays monitoring the rescue of ypt1^ts mutants were performed using a vehicle, a positive control (calcium), active compounds obtained from the alpha-synuclein screen (Cpd. I.1 and Cpd. II.1), alpha-synuclein-active analogs of Cpd. […] I.1 (Cpd. I.4 and Cpd. I.5).

[3] = system: ΔF508 CFTR; assay: ΔF508 CFTR stabilization in CFBE cells, western blot; format: cell-based; settings: 16 hours, 37° C.
Method: Selected compounds identified in the ypt1^ts screen were further tested for their ability to stabilize ΔF508 CTFR. CFBE cells, a cell line generated by transformation of cystic fibrosis tracheo-bronchial cells (ΔF508 CTFR homozygous) with SV40 (Bruscia et al. (2002) Gene Ther. 9(11):683-685), were cultured with 10 μM Cpd. I.3, 10 μM Cpd. II.2, or 10 μM VRT-325 for 16 hours at 37° C. (VRT-325 is described in, e.g., Van Goor et al. (2006) Am. J. Physiol. Lung Cell Mol. Physiol. 290:L1117-L1130). A population of cells was also cultured with the dimethyl sulfoxide (DMSO) solvent as a control.
Following incubation, cells were lysed, solubilized in Laemmli buffer, and subjected to SDS-PAGE. CFTR protein was visualized by western blotting using an antibody specific for CFTR. Culturing CFBE cells with Cpd. I.3 or Cpd. II.2 increased the amount of cellular ΔF508 CFTR protein (see band “B,” FIG. 3A). Cpd. I.3 and Cpd. […] The effects of Cpd. I.3 or Cpd.
Next, to test the effect of different concentrations of Cpd. I.3 and Cpd. II.2 on ΔF508 CFTR, a dose response experiment was performed. CFBE cells were grown at 37° C. for 16 hours in the presence of 1, 2.5, 5, or 10 μM Cpd. I.3 or Cpd. II.2. Following incubation, lysates were prepared from the various treated cell populations, the lysates solubilized in Laemmli buffer, and subjected to SDS-PAGE. The relative amounts of glysosylated (band “C”) and unglycosylated (band “B”) ΔF508 CFTR protein were visualized by western blotting as above (FIGS. 4A and 4C). The band intensities were quantitated by scanning and densitometry. […] I.3 (FIG. 4B) and Cpd. II.2 (FIG. 4D), respectively.

[4] = system: sar1^ts mutant yeast strain; assay: sar1^ts mutant growth rescue assay (OD600); format: cell-based; settings: 35° C., 72 hours, 0.05 to 50 μM
Method: The sar1st mutant yeast strain (ATCC, Manassas, Va.) carries a temperature sensitive mutant allele of the SAR1 gene, which permits the strain to grow at 25° C., but undergo growth arrest at 35° C. or higher. Inactivation of the mutant Sar1^ts protein at 35° C. prevents the formation of transport vesicles at the ER, causing a block in ER to golgi trafficking (Saito et al. (1998) J. Biochem. (Tokyo) 124(4):816-823).
To identify compounds that rescue the sar1^ts mutant phenotype, the mutant strain was first grown at 25° C. in rich media overnight. The strain was then diluted to an OD600 of 0.004 in SC media with 2% glucose, and mixed with various dilutions of test compounds (0.05 to 50 μM) in SC media with 2% glucose. The cells were then incubated at 25° C. or 35° C. for 72 hours. Rescue of the sar1^ts mutant phenotype was scored as an increase in the OD600 (concentration of the yeast cells) cultured in the presence of a test compound as compared to cells cultured cultured in the absence of the test compound.

[5] = system: sec23-2^ts mutant yeast strain; assay: sec23^ts mutant growth rescue assay (OD600); format: cell-based; settings: 30° C., 24 hours, 0.05 to 50 μM
Method: The sec23-2^ts mutant yeast strain carries a temperature sensitive mutant allele of the SEC23 gene, which permits the strain to grow normally at 25° C., but undergo growth arrest at 30° C. or higher. Inactivation of the Sec23 temperature-sensitive mutant protein at the restrictive temperature prevents the formation of transport vesicles at the ER resulting in a block in ER to golgi trafficking (see, e.g., Hicke et al. (1989) EMBO J. 8(6):1677-1684 and Castillo-Flores et al. (2005) J. Biol. Chem. 280(40):34033-34041).
To identify compounds that rescue the sec23^ts mutant phenotype, the mutant strain was first grown at 25° C. in rich media overnight. The strain was then diluted to an OD600 of 0.004 in SC media with 2% glucose, and mixed with various dilutions of test compounds compounds compounds (0.05 to 50 μM) in SC media with 2% glucose. The cells were then incubated at 25° C. or 30° C. for 24 hours. Rescue of the sec23^ts mutant phenotype was scored as an increase in the OD600 of cells cultured in the presence of the a compound as compared to cells cultured in the absence of the test compound.

[6] = system: ΔF508 CFTR mutant; settings: cell-based studies, cited from earlier work

Row | SMILES | activity in the alpha-synuclein screen [1] | rescue of the ypt1^ts mutant phenotype ([2]; 2.0 μM, 37° C., 40 hours) | rescue of ypt1^ts loss of function / restoring growth of ypt1^ts ([2]; 35° C. and 37° C.) | effects on stabilizing ΔF508 CFTR compared with VRT-325 ([3]; 10 μM) | amount of cellular ΔF508 CFTR protein (band B) ([3]; 10 μM, vs DMSO) | amount of the glycosylated form of ΔF508 CFTR (band C) ([3]; 10 μM, vs DMSO) | concentration at which efficacy reached a maximum (dose response curves from western blot) [3] | amount of glycosylated and unglycosylated ΔF508 CFTR proteins compared to absence of compound ([3]; all concentrations tested (1-10 μM)) | rescue of the sar1^ts mutant phenotype [4] | rescue of the sec23^ts mutant phenotype [5] | cellular chloride efflux ([6]; ΔF508 CFTR mutant) | stabilization of the ΔF508 CFTR mutant, preventing premature degradation [6]
1 | N/C(=N\C(=O)C1CC1)Nc1nc2ccccc2s1 [Cpd. I.3] | active | rescued | rescued | comparable or better | increased | increased | 1 to 2.5 µM | increase | rescue | rescue | – | –
2 | CC(C)C[C@H](NC(=O)[C@H](Cc1ccccc1)NC(=O)c1cnccn1)B(O)O [bortezomib] | – | – | – | – | – | – | – | – | – | – | restoring | stabilize
